Assay results reported in patent publication US8741889B2, “Method of treating non-small cell lung cancer and colon cancer with gamma-secretase inhibitor” (Hoffmann-La Roche Inc, priority 2008, dated 2014).

Assays:
[1] = tested on: AsPC1 human pancreatic carcinoma xenografts; experiment: Antitumor efficacy in AsPC1 pancreatic xenografts in nude mice; type: in vivo; conditions: 90 mg/kg ip q3d
Description: Female (athymic nu/nu) nude mice were obtained from Charles River Laboratories (Wilmington, Mass.), while female SCID-beige mice were purchased from Taconic (Germantown, N.Y.). Mice were used when they were approximately 8-12 weeks old (nudes) or 8-10 weeks old (SCID-beige), and weighed approximately 23-25 grams. The health of all animals was determined daily by gross observation of experimental animals and by the analyses of blood samples of sentinel animals that were housed on the shared shelf racks. All animals were allowed to acclimate and recover from any shipping related stress for a minimum of 72 hours prior to experimental use. Autoclaved water and irradiated food [5058-ms Pico chow (mouse) Purina, Richmond, Ind.] were provided ad libitum, and the animals were maintained on a 12 hour light and dark cycle. Cages, bedding and water bottles were autoclaved before use and were changed weekly. MiaPaca2, AsPC1 and BxPC3 human pancreatic carcinoma cells were purchased from ATCC (Manassas, Va.). BxPC3 and AsPC1 cells were grown in RPMI medium and MiaPaca2 cells were grown in Dulbecco's Modified Essential Medium (DMEM). All culture media were supplemented with 10% (v/v) FBS and 1% (v/v) […]. […] SCID-biege mice were implanted se with 5×10^6 BxPC3 cells in a 1:1 mixture of matrigel:PBS in a volume of 0.2 ml per mouse in the right hind flank on May 22, 2007. […] Formulated compound and vehicle were stored at 4° C. and prepared weekly. The suspension was mixed vigorously prior to administration. Gemcitabine (Gemzar®, Eli Lilly and Company, Indianapolis, Ind., USA) was reconstituted with sterile saline to yield a stock solution of 38 mg/ml for the entire 3-4 week study. […] Nude mice implanted with MiaPaca2 or AsPC1 xenografts were randomized on day 17 and day 9 post cell implant, respectively. SCID-beige mice bearing BxPC3 xenografts were randomized 8 days post implant. […] Treatment for the MiaPaca2 study began on Feb. […] For the MiaPaca2 and AsPC1 studies, qd Compound (1) suspension or q3d gemcitabine treatment ended on day 37 post tumor cell implant, whereas for the BxPC3 study, qd Compound (1) suspension or q3d gemcitabine treatment ended on day 35 post tumor cell implant. For intermittent dosing of Compound (1) suspension in the AsPC1 study using the 7+/7− schedule×2 cycles, treatment ended on day 15, was reinitiated on day 23, and finally ended day 29. For intermittent dosing using the 3+/4− schedule×4 cycles, treatment ended on day 11, was reinitiated on day 16, ended day 18, was reinitiated on day 23, ended day 25, was reinitiated day 30, and finally ended on day 32. In the first combination group, daily Compound (1) was given simultaneously with q3d gemcitabine for a total of four weeks. For the remaining combination groups, Compound (1) and gemcitabine were given sequentially rather than simultaneously. In group 8 gemcitabine was dosed q3d during the 1st and 3rd weeks, whereas Compound (1) was given daily during the 2nd and 4th weeks only. In group 9, the order of compound dosing was reversed, with Compound (1) suspension given daily during the 1st and 3rd weeks, whereas gemcitabine was given q3d during the 2nd and 4th weeks. In group 10, gemcitabine was dosed q3d during the 1st and 2nd weeks, whereas Compound (1) was given daily during the 3rd and 4th weeks. In group 11, the order of compound dosing was reversed, with Compound (1) given daily during the 1st and 2nd weeks, and gemcitabine dosed q3d for the 3rd and 4th weeks. […]

[2] = tested on: MiaPaca2 human pancreatic carcinoma xenografts; experiment: Antitumor efficacy in MiaPaca2 pancreatic xenografts in nude mice; type: in vivo; conditions: 60 mg/kg ip q3d, day 37
Description: Female (athymic nu/nu) nude mice were obtained from Charles River Laboratories (Wilmington, Mass.), while female SCID-beige mice were purchased from Taconic (Germantown, N.Y.). Mice were used when they were approximately 8-12 weeks old (nudes) or 8-10 weeks old (SCID-beige), and weighed approximately 23-25 grams. The health of all animals was determined daily by gross observation of experimental animals and by the analyses of blood samples of sentinel animals that were housed on the shared shelf racks. All animals were allowed to acclimate and recover from any shipping related stress for a minimum of 72 hours prior to experimental use. Autoclaved water and irradiated food [5058-ms Pico chow (mouse) Purina, Richmond, Ind.] were provided ad libitum, and the animals were maintained on a 12 hour light and dark cycle. Cages, bedding and water bottles were autoclaved before use and were changed weekly. MiaPaca2, AsPC1 and BxPC3 human pancreatic carcinoma cells were purchased from ATCC (Manassas, Va.). BxPC3 and AsPC1 cells were grown in RPMI medium and MiaPaca2 cells were grown in Dulbecco's Modified Essential Medium (DMEM). All culture media were supplemented with 10% (v/v) FBS and 1% (v/v) […]. […] SCID-biege mice were implanted se with 5×10^6 BxPC3 cells in a 1:1 mixture of matrigel:PBS in a volume of 0.2 ml per mouse in the right hind flank on May 22, 2007. […] Formulated compound and vehicle were stored at 4° C. and prepared weekly. The suspension was mixed vigorously prior to administration. Gemcitabine (Gemzar®, Eli Lilly and Company, Indianapolis, Ind., USA) was reconstituted with sterile saline to yield a stock solution of 38 mg/ml for the entire 3-4 week study. […] Nude mice implanted with MiaPaca2 or AsPC1 xenografts were randomized on day 17 and day 9 post cell implant, respectively. SCID-beige mice bearing BxPC3 xenografts were randomized 8 days post implant. […] Treatment for the MiaPaca2 study began on Feb. […] For the MiaPaca2 and AsPC1 studies, qd Compound (1) suspension or q3d gemcitabine treatment ended on day 37 post tumor cell implant, whereas for the BxPC3 study, qd Compound (1) suspension or q3d gemcitabine treatment ended on day 35 post tumor cell implant. For intermittent dosing of Compound (1) suspension in the MiaPaca2 study using the 7+/7−/7+ schedule, treatment ended on day 23, was reinitiated on day 31, and ended day 37. In the combination groups Compound (1) suspension was given sequentially with gemcitabine using the 7+/7−/7+ schedule so that Compound (1) was dosed daily only during the first and third weeks, whereas gemcitabine was dosed q3d during the second week only. Efficacy data was graphically represented as the mean tumor volume+standard error of the mean (SEM). Tumor volumes of treated groups were presented as percentages of tumor volumes of the control groups (% T/C), using the formula: 100×((T−T0)/(C−C0)), where T represented mean tumor volume of a treated group on a specific day during the experiment, T0 represented mean tumor volume of the same […] on the first day of treatment; C represented mean tumor volume of a control group on the specific day during the experiment, and C0 represented mean tumor volume of the same treated group on the first day of treatment. Tumor volume (in cubic millimeters) was calculated using the ellipsoid formula: (D×(d2))/2 where ‘D’ represents the large diameter of the tumor, and ‘d’ represents the small diameter. In some cases, tumor regression and/or percent change in tumor volume was calculated using the formula: ((T−T0)/T0)×100 where ‘T’ represents mean tumor volume of the treated group at a particular day, and ‘T0’ represents mean tumor volume of the same treated group at initiation of treatment. Statistical analysis was determined by the rank sum test and One Way Anova and a post-hoc Bonferroni t-test (SigmaStat, version 2.0, Jandel Scientific, San Francisco, Calif.). […]

## Nc1ccn([C@@H]2O[C@H](CO)[C@@H](O)C2(F)F)c(=O)n1 [gemcitabine, Gemcitabine, reference compound]
[1]
  % TGI: 39%
[2]
  % TGI: 62%
